Data reported in patent US20040235717A1, “Suppression of androgen receptor transactivation through new pathways to ar and ar coactivators and repressors” (priority 2001, published 2004).
Entries after “also recorded” stand apart in the source; their conditions may differ.

What was measured:
AR transactivation [1] = assay: AR transactivation with TSA, MMTV-LUC in PC3-AR2 cells; assay type: cell-based
PI3K = PI3K activity assay using phosphatidylinositol as substrate; assay type: cell-based, human; conditions: LNCaP
Method: (§1) 251. IL-6's effect on PI3K activity was tested. After serum starvation for 24 h, LNCaP, PC-3 or DU145 cells were treated with 50 μg/ml IL-6 for 30 minutes. The cells were then harvested. PI3K activity was measured by using phosphatidylinositol (PT) as a substrate. […] The transactivation was measured by CAT activity.
260. […] PI3K activity was measured using PI as a substrate.
265. PI3K activity was determined as previously described. Vlahos, C. J. et al, J. Biol. Chem. 269, 5241-5148 (1994).

IL-6 protein expression = assay: IL-6 secretion by LNCaP cells (ELISA); assay type: cell-based
Method: 11. […] IL-6 secretion in the medium was determined by ELISA. […] LNCaP cells, were serum starved for 24 h. […] PI3K activity was measured using PI as a substrate. The origin (ori) of the chromatogram and PI3-phosphate (PI3P) were indicated.
259. […] The IL-6 protein level in the supernatants was then evaluated by BLISA.

LNCaP cells = assay: DHT/TPA-induced apoptosis in LNCaP cells, TUNEL assay; assay type: cell-based; conditions: for LNCaP cell apoptosis, agent per se: 10 nM DHT or 1 nM TPA alone
Method: (§2) 18. […] (A) Akt suppressed androgen/AR-induced p21 promoter activity. […] (B) Androgen/AR-induced PC-3(AR)6 apoptosis and p21 protein expression was blocked by Akt PC-3(AR)6 was transfected with pCDNA3, cAkt, or dAkt, as indicated, for 16 h. […] (C) AR-induced p21 protein expression was enhanced by dAkt in LNCaP cells. […] LNCaP stable transfection with dAkt was confirmed by western blot assay using phospho-Akt (Ser473) antibody. […] TPA was then added for another 24 h and cell apoptosis was determined by TUNEL assay. […] IGF-1 was added for another 30 min, followed by 10 nM TPA treatment for another 24 h. The apoptosis was determined by TUNEL assay. The data are means±s.d. from three independent experiments.
(§3) 281. The TUNEL assay was performed to measure the cell apoptosis according to the standard procedures (Oncogene Research Products). At least 200 cells were scored for each sample and the data are means±s.d. from three independent experiments.

p21 expression = assay: p21 promoter activity (luciferase) and p21 protein expression; assay type: cell-based; conditions: PC-3 cells; 10 nM DHT
Method: as §2

[2] = tested on: wtAR, mtARt877a, PR, VDR, ER transactivation; assay: Steroid receptor transactivation with Smad3 in DU145 cells (wtAR, mtARt877a, PR, VDR, ER); assay type: cell-based, human; conditions: for wtAR transactivation response to ligand: DHT 10 nM, HF 1 μM, E2 10 nM
PSA mRNA expression = PSA mRNA expression in LNCaP cells, Northern blot; assay type: cell-based
AR transactivation [3] = assay: AR transactivation, MMTV-luc / (ARE)4-luc luciferase reporter assay; assay type: cell-based; conditions: LNCaP MMTV-luc and CWR22 (ARE)4-luc
AR protein levels = assay: AR protein (Western blot) and AR mRNA (Northern blot) levels; assay type: cell-based; conditions: LNCaP, transfected
AR transactivation [4] = assay: AR transactivation, MMTV-CAT reporter in DU145 cells transfected with AR; assay type: cell-based, human
Description: 250. To dissect the divergent effects of IL-6 in prostate tumor growth, Qui, Y. et al., Nature 393, 83-85 (1998); Hobisch, A. et al., Cancer Res. 58, 4640-4645 (1998); Ritchie, C. K. et al., Endocrinology 138, 1145-1150 (1997), the potential influences of IL-6 on the transactivation of AR, the master regulator of the prostate tumor growth were studied. Chang, C. et al., Science 240, 324.326 (1988); Chang, C. et al., Crit. Rev. Eukaryotic Gene Expression 5, 97-125 (1995). Because IL-6 has two major signal cascades, mitogen-activated protein kinase (MAPK) and phosphatidylinositol 3-kinase (PI3K), Qui, Y. et al., Nature 393, 83-85 (1998); Qui, Y. et al., Proc. Natl. Acad. Sci. USA 95, 3644-3649 (1998), inhibitors were applied to specifically block one of these two IL-6 signal pathways. DU145 cells were transfected for 24 h with AR and MMTV-CAT reporter gene. After transfection, the cells were serum starved for 24 h. Next, 20 μM LY294002, P098059 or vehicle was added to serum-free medium 30 min prior to IL-6 treatment. […] The cells were then harvested and AR transactivation was measured by CAT activity. […] Vlahos, C. J. et al., J. Biol. Chem. 269, 5241-5148 (1994). […] Alessi, D. R. et al., J. Biol. Chem. 270, 27489-27494 (1995).
as §1
252. Focus then turned to the two major downstream effectors of PI3K: a serine/threonine kinase (Akt/PKB) and a ribosomal S6 kinase (p70S6k). Franke, T. F. et al., Cell 88,435-437 (1997). […] The transactivation activity was determined after 24 h transfection.
262. The DU145 and PC-3 cells were maintained in Dulbecco's Minimum Essential Medium (DMEM) containing penicillin (25 μg/m1), streptomycin (25 μg/ml), and 5% fetal calf serum (FCS). The LNCaP cells were maintained in RPMI-1640 with 10% FCS. Transfections were performed using the calcium phosphate precipitation method, as previously described. Yeh, S. et al., Proc. Natl. Acad. Sci. USA 93, 5517-5521(1996).
277. The DU145 and PC-3 cells were maintained in Dulbecco's Minimum Essential Medium (DMEM) containing penicillin (25 U/ml), streptomycin (25 μg/ml), and 5% fetal calf serum (FCS). The LNCaP cells were maintained in RPMI-1640-10% FCS. Transfections were performed using the calcium phosphate precipitation method in PC-3 and DU145, as previously described. Yeh, S., Lin, H. K., Kang, H. Y., Thin, T. H., Lin, M. F. & Chang, C. (1999) Proc Natl Acad Sci U S A 96, 5458-63. LNCaP cells were transfected using SuperFect™ according to standard procedures (Qiagen).

Akt / AR phosphorylation = assay: Akt activation and in vivo AR phosphorylation in COS-1 cells; assay type: cell-based
Method: 14. […] COS-1 cells were pretreated with ethanol or 20 μM LY294002 for 30 min, followed by treatment with 100 ng/ml IGF-1 for 30 min. The total cell lysates were immunoprecipitated by anti-Akt antibody (New England Biolabs). The immunocomplex was subjected to SDS-PAGE, followed by immunoblot with phospho-Akt (S473) antibody or Akt antibody. (B) IGF-1 phosphorylates AR in vivo via Akt. COS-1 cells were cultured in [^32P]-PO4-containing medium. AR immunocomplex was subjected to SDS-PAGE followed by autoradiography. Immunobloting confirmed equivalent amounts of AR in immunocomplex. (C) cAkt, but not dAkt, phosphorylates wtAR, but not mtAR S210A and mtAR S790A in vivo. COS-1 cells were transfected with wtAR, mtAR S210A, or mtAR S790A in combination with PCDNA3 vector, cAkt, or dAkt. After 24 h transfection, cells were labeled with [^32P]-PO4 for 4 h. (D) Suppression of AR transactivation by Akt in a dose-dependent manner. […] Transactivation was measured by CAT activity using MMTV-CAT as a reporter. (E) mtAR S210A is resistant to Akt suppressive effect on AR transactivation. DU145 cells were transfected with plasmids encoding wtAR, mtAR S210A or mtAR S790A in presence of cAkt or dAkt for 24 h. Ligand treatment and AR transactivation were performed as previously described. The data are means±s.d. from three independent experiments.
282. […]

[5] = tested on: PC-3(AR)2, PC-3(AR)6, SAR-91 cells; assay: Androgen/AR-induced apoptosis, TUNEL assay in PC-3(AR)2, PC-3(AR)6 and SAR-91 cells; assay type: cell-based; conditions: HF 5 μM, IGF-1 100 ng/ml, DHT 10 nM, 3 days
Description: 17. […] (A) PC-3(AR)2 and PC-3(AR)6 expressed AR protein. PC-3 cells were stably transfected with AR, followed by selection with hygromycin B, and confirmed by western blotting using AR antibody NH27, while LNCaP was used as a positive control. (B) Androgen/AR-induced apoptosis in PC-3(AR)2, PC-3(AR)6, and SAR-91 were inhibited by PI(3)K/Akt pathway. […] The data are means±s.d. from three independent experiments.
as §2, §3

CCCC(=O)[O-].[Na+] [NaB]
Effect on Smad3/Smad4-suppressed AR transactivation (AR transactivation [1]): reverse Smad3/Smad4-repressed AR transactivation

C[C@]12CCC(=O)C[C@@H]1CC[C@@H]1[C@@H]2CC[C@]2(C)[C@@H](O)CC[C@@H]12 [DHT, 5α-dihydrotestosterone, reference compound]
IL-6-induced PI3K activity (PI3K; DHT and IL-6 for 30 min): repress PI3K activity significantly | IL-6 protein expression (IL-6 protein expression; 0, 1, 10 or 50 nM DHT 24 h, then 160 nM PMA 24 h): reduced by DHT in a dose-dependant manner | LNCaP cell apoptosis, agent per se (LNCaP cells): only marginal effects on apoptosis | p21 promoter activity (p21 expression): induce p21 promoter activity | wtAR transactivation response to ligand [2]: responded well | PSA mRNA expression (PSA mRNA expression; 10 nM DHT): induced PSA mRNA expression; also recorded: increases PSA mRNA expression

CCCCCCCCCCCCCC(=O)O[C@@H]1[C@@H](C)[C@@]2(O)[C@@H](C=C(CO)C[C@]3(O)C(=O)C(C)=C[C@@H]23)[C@H]2C(C)(C)[C@]12OC(C)=O [TPA, 12-0-tetradecanoyl phorbol-13-acetate]
LNCaP cell apoptosis, agent per se (LNCaP cells): only marginal effects on apoptosis

PTEN-PTP: PTEN peptide (aa, 110-163) containing the phosphatase domain (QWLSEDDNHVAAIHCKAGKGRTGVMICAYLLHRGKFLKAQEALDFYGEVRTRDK; left off: a dimerising Fc or GST)
Effect on AR transactivation (AR transactivation [3]): suppress of AR transactivation | AR degradation (AR protein levels): promote AR degradation

IL-6: a pleiotropic cytokine
Effect of IL-6 on AR transactivation (CAT activity) (AR transactivation [4]; MAPK pathway inhibited by 20 μM P098059 30 min prior to IL-6): repress AR transactivation | Effect of IL-6 on AR transactivation (CAT activity) (AR transactivation [4]; PI3K pathway inhibited by 20 μM LY294002 30 min prior to IL-6): enhance AR transactivation | Effect of IL-6 on AR transactivation (CAT activity) (AR transactivation [4]; none of the MAPK and PI3K pathways blocked, DHT 24 h): very limited effect | PI3K activity (PI3K; PC-3, DU145 cells, 50 μg/ml IL-6 for 30 min): increase PI3K activity

IGF-1: insulin-like growth factor-1
Akt activation (phospho-Akt S473) (Akt / AR phosphorylation; 100 ng/ml IGF-1 30 min): Activation of Akt | AR phosphorylation in vivo (Akt / AR phosphorylation; [32P] labeling): strongly induced AR phosphorylation | Effect on androgen-induced apoptosis [5]: repress androgen-induced apoptosis | Effect on DHT/TPA-induced apoptosis (LNCaP cells; LNCaP cells stably transfected with dAkt): only marginal suppressive effects | Effect on DHT/TPA-induced apoptosis (LNCaP cells; LNCaP parent cells): partially repressed DHT/TPA-induced apoptosis

CC(C)(O)C(=O)Nc1ccc([N+](=O)[O-])c(C(F)(F)F)c1 [HF, hydroxyflutamide]
Effect on DHT repression of IL-6 protein expression (IL-6 protein expression): reverse this induction | Effect on androgen-induced apoptosis [5]: inhibition of androgen-induced apoptosis | Effect on DHT/TPA-induced apoptosis (LNCaP cells; LNCaP parent cells): repress this DHT/TPA-mediated apoptosis | mtARt877a transactivation response to ligand [2]: responded much better | wtAR transactivation response to ligand [2]: respond marginally | Effect on Smad3-enhanced PSA induction (PSA mRNA expression): partially repressed
